Measured values taken from patent US8592600B2, “Solid state forms of racemic ilaprazole” (Il Yang Pharmaceutical Company, Ltd., priority 2006, dated 2013).
“Also recorded” adds a separate entry of the source.

Columns and labels:
[1] = Bioavailability study of ilaprazole from 40-mg delayed-release tablets, plasma pharmacokinetics; assay type: in vivo, human; conditions: for t1/2z, harmonic mean / tlag, Mean / tmax, Mean: single 5 mg oral dose (table title; text: 40 mg delayed-release tablet); for mean AUC, rank among forms / mean Cmax, rank among forms / mean apparent oral clearance, rank among forms / mean apparent volume of distribution, rank among forms / mean AUC∞ lower than value observed for Form A / mean Cmax lower than value observed for Form A: single 40 mg oral dose; for AUC lower than Form A, point estimate / Cmax lower than Form A, point estimate: ANOVA point estimate, relative to 40-mg tablet as Form A; for half-life, relative: humans, Forms A, B, F compared; for mean AUC∞ lower than value observed for Form A / mean Cmax lower than value observed for Form A: mean values; for lower bound of 90% confidence interval for ratio of central values, AUC / lower bound of 90% confidence interval for ratio of central values, AUC∞ / lower bound of 90% confidence interval for ratio of central values, Cmax: relative to Form A (Regimen A), bioequivalence limit 0.80; for AUCt, Point Estimate (ratio of central values) vs. Regimen A / AUC∞, Point Estimate (ratio of central values) vs. Regimen A / Cmax, Point Estimate (ratio of central values) vs. Regimen A: relative to Regimen A (Form A), Regimen B = Form B, Regimen C = Form F, single 40-mg delayed-release tablet
Text: The bioavailability of ilaprazole from delayed-release tablets containing racemic ilaprazole, Form A, F, and B. This study were to assessed the bioavailability of ilaprazole from ilaprazole 40-mg delayed-release tablets manufactured as described in Example 8.
The subjects were randomly assigned in equal numbers to one of three sequence groups (Table 32).
Subjects received all regimens in a crossover fashion, according to the sequence group to which they were randomized. For each period, confinement began on Day 1 and ended on Day 2 after all procedures had been completed. There was a washout interval of at least 5 days between the doses of each period. Each subject received 3 doses of racemic ilaprazole 40 mg, each dose administered with 240 mL of water. On Day 1 of each period, subjects received the regimen to which they had been assigned at approximately 0800 hours. Subjects were fasted for 10 hours prior to dosing and remained fasted until 4 hours postdose when a standardized lunch was served.
Ilaprazole, ilaprazole sulfide and ilaprazole sulfone plasma concentrations were determined from 3 mL blood samples collected starting on Day 1 at 0 hour (predose), and 0.5, 1, 1.5, 2, 3, 4, 5, 6, 8, 10, 12, 14, 16, 20, 24, 28 and 32 hours postdose in each period. Plasma concentrations of ilaprazole were determined using a validated LC-MS/MS method at PPD (Middleton, Wis.). The lower limit of quantitation (LLOQ) for ilaprazole and its metabolites was 5.00 ng/mL with a 0.100 mL aliquot of plasma.
Pharmacokinetic parameters for ilaprazole were estimated using standard noncompartmental methods with WinNonlin Professional Version 4.1 (Pharsight Co., Mountain View, Calif.).
Pharmacokinetic endpoints included time to reach the first quantifiable concentration (tlag), time to reach the peak concentration (tmax), the peak plasma concentration (Cmax), area under the plasma concentration versus time curve (AUC) from time zero to the last quantifiable concentration (AUCt) and to infinity (AUC∞), terminal-phase elimination half-life (t1/2z), apparent oral clearance (CL/F) and apparent volume of distribution (Vz/F).
For ilaprazole tlag, tmax, and the natural logarithms of Cmax and AUCs, an analyses of variance (ANOVA) model was fitted that included fixed effects of sequence, period, and crystal form as well as a random effect of subject nested within sequence. Pairwise comparisons between racemic ilaprazole, Forms B or F and Form A, were conducted. Ninety percent confidence intervals for relative bioavailability between regimens were computed.

[2] = Solubility of racemic ilaprazole forms in various ethanol solutions (100-50% ethanol) with various apparent pHs, 1 hour; assay type: physicochemical; conditions: comparison between Forms A, B, F
Description: The solubility of racemic ilaprazole, Forms A, B, and F, were analyzed by exposing them to various ethanol solutions having various pHs for 1 hour. Duplicate analysis was performed for each sample on a second day. The solubility in 100% ethanol (with no pH adjustment) is shown in the first column. Various other aqueous solutions (87.5%, 75%, 62.5%, and 50% ethanol) with varying apparent pHs (7, 8, 9, 10, and 11) were also evaluated. All of the values below are the average of two duplicate preparations analyzed on different days.

[3] = Dynamic Vapor Sorption/Desorption (DVS); assay type: physicochemical; conditions: for weight loss at 5% RH / weight loss from 95 to 5% RH / weight gain from 5 to 95% RH: DVS isotherm; for weight loss from 95 to 5% RH: desorption; for weight gain from 5 to 95% RH: sorption
Description: Dynamic Vapor Sorption/Desorption (DVS): Data were collected on a VTI SGA-100 moisture balance system. For sorption isotherms, a sorption range of 5 to 95% relative humidity (RH) and a desorption range of 95 to 5% RH in 10% RH increments were used for analysis. The samples were not dried prior to analysis. Equilibrium criteria used for analysis were less than 0.0100% weight change in 5 minutes with a maximum equilibration time of 3 hours if the weight criterion was not met. Data were not corrected for the initial moisture content of the samples.

[4] = Solid state stability of the crystalline forms; assay type: physicochemical
[5] = Dissolution rate of delayed release tablets, 40 mg (USP <711>, Delayed Release Method A); assay type: physicochemical; conditions: 40 mg tablet, dissolution buffer
Description: Delayed release tablets containing 40 mg racemic ilaprazole, Form A, B, or F, were prepared and the dissolution rates of the tablets studied. The tablets were identical, with the exception of the crystalline form of ilaprazole. The qualitative and quantitative compositions of racemic ilaprazole delayed release tablets, 40 mg (inclusive of the compositions made using Forms A, B, and F) are described in Table 30. The dissolution rate procedure was modified to be consistent with USP <711>, Delayed Release Method A and to change the UV detection wavelength in the acid stage of the test. For the acid stage, a wavelength of 340 nm was used, and for the buffer stage, a wavelength of 306 nm was used. The desired dissolution profile was Q=70% in 60 minutes.

[6] = system: gastric acid; test: Phase 1 and Phase 2 clinical studies conducted with ilaprazole; assay type: in vivo, human
[7] = human, plasma, po, 40 mg, plasma ilaprazole, healthy adult subjects, single 40 mg oral dose (table title; text: 40 mg delayed-release tablet), fasted
[8] = plasma ilaprazole, healthy adult subjects, fasted
[9] = plasma ilaprazole, healthy adult subjects, single 40 mg oral dose (table title; text: 40 mg delayed-release tablet), fasted

t1/2z, harmonic mean [1, 8] | tlag, Mean [1, 8] | CL/F, Mean [1, 9] | t1/2z, arithmetic mean [1, 9] | mean AUC, rank among forms [1] | mean Cmax, rank among forms [1] | mean apparent oral clearance, rank among forms [1] | mean apparent volume of distribution, rank among forms [1] | hygroscopicity [3] | weight loss at 5% RH [3] | weight loss from 95 to 5% RH [3] | weight gain from 5 to 95% RH [3] | AUC lower than Form A, point estimate [1] | Cmax lower than Form A, point estimate [1] | half-life, relative [1] | mean AUC∞ lower than value observed for Form A [1] | mean Cmax lower than value observed for Form A [1] | tmax, Mean [1, 8] | AUCt, Mean [1, 9] | SMILES | relative solubility in aqueous solutions/solvents [2] | further results
(6.95) h | 1.16 h | 9.34 L/h | 8.89 h | highest | highest | lowest | lowest | not hygroscopic | 0.06% | 0.13% | 0.10% | – | – | – | – | – | – | – | COc1ccnc(C[S+]([O-])c2nc3cc(-n4cccc4)ccc3[nH]2)c1C (racemic) [Form A, 2[[(4-methoxy-3-methyl-2-pyridinyl)-methyl]sulfinyl]-5-(1H-pyrrol-1-yl) 1H-Benzimidazole] | A<F<B; also recorded: least soluble in aqueous solutions | AUC(0-inf) [1, 7]: 5450 ng·h/mL; AUC(0-t) [1, 7]: 5070 ng·h/mL; Cmax [1, 7]: 652 ng/mL; Tmax [1, 7]: 4.14 h; Vd/F ([1]; human, plasma, po, 40 mg, plasma ilaprazole, healthy adult subjects, single 40 mg oral dose (table title; text: 40 mg delayed-release tablet), fasted, read-out: Vz/F, Mean): 112 L; thermodynamic stability among crystalline forms [4]: most thermodynamically stable
– | – | – | – | – | – | – | – | – | 0.1% | 4.2% | 4.2% | – | – | – | – | – | – | – | COc1ccnc(C[S+]([O-])c2nc3cc(-n4cccc4)ccc3[nH]2)c1C (racemic) [Form I, 2[[(4-methoxy-3-methyl-2-pyridinyl)-methyl]sulfinyl]-5-(1H-pyrrol-1-yl) 1H-Benzimidazole] | – | –
(7.76) h | 1.22 h | 11.70 L/h | 9.48 h | lowest | lowest | highest | highest | not hygroscopic | 0.03% | 0.00% | 0.04% | ~24% | approximately 17% | greater half-life than Form A | ~25% | approximately 20% | 3.50 h | 3812.50 ng·h/mL | COc1ccnc(C[S+]([O-])c2nc3cc(-n4cccc4)ccc3[nH]2)c1C (racemic) [Form B, 2[[(4-methoxy-3-methyl-2-pyridinyl)-methyl]sulfinyl]-5-(1H-pyrrol-1-yl) 1H-Benzimidazole] | A<F<B; also recorded: more soluble in aqueous solvents than Form A | AUC∞, Mean [1, 9]: 4087.99 ng·h/mL; Cmax, Mean [1, 9]: 522.51 ng/mL; lower bound of 90% confidence interval for ratio of central values, AUC [1]: < 0.80; lower bound of 90% confidence interval for ratio of central values, AUC∞ [1]: < 0.80; lower bound of 90% confidence interval for ratio of central values, Cmax [1]: < 0.80; AUCt, Point Estimate (ratio of central values) vs. Regimen A [1]: 0.7630; AUC∞, Point Estimate (ratio of central values) vs. Regimen A [1]: 0.7609; Cmax, Point Estimate (ratio of central values) vs. Regimen A [1]: 0.8292; dissolution of delayed release tablet, relative [5]: relatively slower dissolution profile; also recorded: slower to wet and dissolve in the dissolution buffer than Form A and Form F; long term stability or shelf life [4]: good long term stability or shelf life
– | – | – | – | – | – | – | – | – | – | – | – | – | – | – | – | – | – | – | COc1ccnc(C[S+]([O-])c2nc3cc(-n4cccc4)ccc3[nH]2)c1C (stereo not shown) [ilaprazole, 2[[(4-methoxy-3-methyl-2-pyridinyl)-methyl]sulfinyl]-5-(1H-pyrrol-1-yl) 1H-Benzimidazole] | – | suppression of gastric acid ([6]; Phase 1 clinical studies, at the doses studied): suppression of gastric acid occurs over a 24-hour period; healing of acid-related gastric and duodenal ulcers ([6]; Phase 2 clinical studies): promoted rapid healing; symptomatic relief ([6]; Phase 2 clinical studies, patients with gastric-acid related disorders): provided symptomatic relief
(7.29) h | 1.18 h | 11.29 L/h | 9.66 h | – | – | – | – | slightly hygroscopic | 0.04% | 1.33% | 1.05% | 15-17% | approximately 15% | longest half-life | ~14% | approximately 15% | 4.01 h | 4256.66 ng·h/mL | COc1ccnc(C[S+]([O-])c2nc3cc(-n4cccc4)ccc3[nH]2)c1C (racemic) [Form F, 2[[(4-methoxy-3-methyl-2-pyridinyl)-methyl]sulfinyl]-5-(1H-pyrrol-1-yl) 1H-Benzimidazole] | A<F<B; also recorded: more soluble in aqueous solvents than Form A | AUC∞, Mean [1, 9]: 4672.37 ng·h/mL; Cmax, Mean [1, 9]: 554.18 ng/mL; lower bound of 90% confidence interval for ratio of central values, AUC [1]: < 0.80; lower bound of 90% confidence interval for ratio of central values, AUC∞ [1]: < 0.80; lower bound of 90% confidence interval for ratio of central values, Cmax [1]: < 0.80; AUCt, Point Estimate (ratio of central values) vs. Regimen A [1]: 0.8288; AUC∞, Point Estimate (ratio of central values) vs. Regimen A [1]: 0.8456; Cmax, Point Estimate (ratio of central values) vs. Regimen A [1]: 0.8456
